From patent US20250163054A1, “SUBSTITUTED BICYCLIC HETEROARYL COMPOUNDS USEFUL AS INHIBITORS OF TLR9” (Bristol-Myers Squibb Company, priority 2022, published 2025)

Legend:
Assay type in all cases: cell-based
[1] = biological target: T1, human TLR8 (Homo sapiens, UniProt Q9NR97); assay: TLR7/8/9 Inhibition Reporter Assays (TLR8); conditions: HEK-Blue cells overexpressing human TLR8, SEAP reporter, stimulated with TLR8 ligand R848
T1 construct: host or cells: HEK-Blue cells (HEK293-derived reporter line)
T1 sequence (Q9NR97 27-1041): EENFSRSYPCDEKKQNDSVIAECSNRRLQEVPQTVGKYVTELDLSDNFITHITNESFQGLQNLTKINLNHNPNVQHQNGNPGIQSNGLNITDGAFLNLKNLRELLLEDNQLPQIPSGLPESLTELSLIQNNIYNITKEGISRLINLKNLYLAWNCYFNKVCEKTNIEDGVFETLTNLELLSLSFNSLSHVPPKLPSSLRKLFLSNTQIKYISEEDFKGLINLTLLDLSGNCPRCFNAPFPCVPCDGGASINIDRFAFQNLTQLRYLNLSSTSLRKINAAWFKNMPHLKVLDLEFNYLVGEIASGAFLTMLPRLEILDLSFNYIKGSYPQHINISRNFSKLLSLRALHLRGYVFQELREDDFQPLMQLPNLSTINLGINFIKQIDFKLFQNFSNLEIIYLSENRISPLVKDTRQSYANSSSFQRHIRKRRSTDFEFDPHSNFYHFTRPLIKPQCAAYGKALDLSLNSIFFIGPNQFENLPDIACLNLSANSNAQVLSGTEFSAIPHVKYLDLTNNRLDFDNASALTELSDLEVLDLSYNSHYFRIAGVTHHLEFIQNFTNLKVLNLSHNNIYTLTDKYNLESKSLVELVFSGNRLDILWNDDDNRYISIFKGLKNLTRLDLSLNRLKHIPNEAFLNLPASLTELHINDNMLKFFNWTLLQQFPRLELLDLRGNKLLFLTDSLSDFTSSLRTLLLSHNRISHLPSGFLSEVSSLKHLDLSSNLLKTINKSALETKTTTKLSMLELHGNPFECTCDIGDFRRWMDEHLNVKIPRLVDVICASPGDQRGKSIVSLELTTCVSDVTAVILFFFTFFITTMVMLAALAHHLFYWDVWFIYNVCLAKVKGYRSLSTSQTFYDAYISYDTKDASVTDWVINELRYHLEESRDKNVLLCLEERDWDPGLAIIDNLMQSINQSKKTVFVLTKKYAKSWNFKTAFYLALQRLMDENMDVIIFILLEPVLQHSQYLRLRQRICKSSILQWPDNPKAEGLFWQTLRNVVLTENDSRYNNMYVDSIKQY
Experimental: (§1) HEK-Blue™-cells (Invivogen) overexpressing human TLR7, TLR8 or TLR9 receptors were used for screening inhibitors of these receptors using an inducible SEAP (secreted embryonic alkaline phosphatase) reporter gene under the control of the IFN-β minimal promoter fused to five NF-κB and AP-1-binding sites. Cells are seeded into Greiner 384 well plates (15000 cells per well) that are predispensed (by ECHO) with testing compounds in DMSO to yield a final dose response concentration range of 0.85 nM-[…]. After a 60 minute compound pre-treatment in 37° C. incubator, the cells are then stimulated with a TLR7 ligand (gardiquimod at a final concentration of […]), TLR8 ligand (R848 at a final concentration of […]) or TLR9 ligand (ODN2006 at a final concentration of 200 nM) to activate NF-κB and AP-1 which induce the production of SEAP. After a 22 hour incubation at 37° C., 5% CO2, SEAP levels are determined with the addition of HEK-Blue™ Detection reagent (Invivogen), a cell culture medium that allows for detection of SEAP, according to manufacturer's specifications. The percent inhibition is determined as the % reduction in the HEK-Blue signal present in wells treated with agonist plus DMSO alone compared to wells treated with a known inhibitor.

[2] = biological target: T2, human TLR9 (Homo sapiens, UniProt Q9NR96); assay: TLR7/8/9 Inhibition Reporter Assays (TLR9); conditions: HEK-Blue cells overexpressing human TLR9, SEAP reporter, stimulated with TLR9 ligand ODN2006
T2 construct: host or cells: HEK-Blue cells (HEK293-derived reporter line)
T2 sequence (Q9NR96 26-1032): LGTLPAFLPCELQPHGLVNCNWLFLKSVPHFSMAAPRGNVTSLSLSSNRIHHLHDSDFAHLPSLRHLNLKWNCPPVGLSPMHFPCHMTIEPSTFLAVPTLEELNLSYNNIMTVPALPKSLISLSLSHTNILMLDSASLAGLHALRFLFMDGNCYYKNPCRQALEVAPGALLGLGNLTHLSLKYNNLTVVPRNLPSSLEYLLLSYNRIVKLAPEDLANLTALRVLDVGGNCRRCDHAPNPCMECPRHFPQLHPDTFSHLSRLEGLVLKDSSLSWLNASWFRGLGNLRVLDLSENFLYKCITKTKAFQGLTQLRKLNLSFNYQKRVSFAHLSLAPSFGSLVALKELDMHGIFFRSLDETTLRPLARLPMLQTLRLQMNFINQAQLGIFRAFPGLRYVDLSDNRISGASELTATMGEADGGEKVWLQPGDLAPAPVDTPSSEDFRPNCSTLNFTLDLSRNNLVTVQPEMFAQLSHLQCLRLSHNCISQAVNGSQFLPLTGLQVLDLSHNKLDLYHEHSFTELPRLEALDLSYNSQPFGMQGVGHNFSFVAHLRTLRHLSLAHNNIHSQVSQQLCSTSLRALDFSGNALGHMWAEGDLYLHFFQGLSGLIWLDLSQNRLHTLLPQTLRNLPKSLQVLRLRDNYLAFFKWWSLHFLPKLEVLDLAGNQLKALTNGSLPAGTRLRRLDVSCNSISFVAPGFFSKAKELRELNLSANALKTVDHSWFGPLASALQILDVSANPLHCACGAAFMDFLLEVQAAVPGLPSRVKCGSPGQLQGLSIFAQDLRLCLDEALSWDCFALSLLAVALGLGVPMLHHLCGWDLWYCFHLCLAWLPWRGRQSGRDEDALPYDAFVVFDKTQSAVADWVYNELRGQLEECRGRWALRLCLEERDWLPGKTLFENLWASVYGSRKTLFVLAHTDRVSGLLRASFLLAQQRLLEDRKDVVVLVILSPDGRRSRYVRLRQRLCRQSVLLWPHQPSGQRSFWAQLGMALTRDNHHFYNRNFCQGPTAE
Experimental: as §1

[3] = biological target: T3, human TLR7 (Homo sapiens, UniProt Q9NYK1); assay: TLR7/8/9 Inhibition Reporter Assays (TLR7); conditions: HEK-Blue cells overexpressing human TLR7, SEAP reporter, stimulated with TLR7 ligand gardiquimod
T3 construct: host or cells: HEK-Blue cells (HEK293-derived reporter line)
T3 sequence (Q9NYK1 27-1049): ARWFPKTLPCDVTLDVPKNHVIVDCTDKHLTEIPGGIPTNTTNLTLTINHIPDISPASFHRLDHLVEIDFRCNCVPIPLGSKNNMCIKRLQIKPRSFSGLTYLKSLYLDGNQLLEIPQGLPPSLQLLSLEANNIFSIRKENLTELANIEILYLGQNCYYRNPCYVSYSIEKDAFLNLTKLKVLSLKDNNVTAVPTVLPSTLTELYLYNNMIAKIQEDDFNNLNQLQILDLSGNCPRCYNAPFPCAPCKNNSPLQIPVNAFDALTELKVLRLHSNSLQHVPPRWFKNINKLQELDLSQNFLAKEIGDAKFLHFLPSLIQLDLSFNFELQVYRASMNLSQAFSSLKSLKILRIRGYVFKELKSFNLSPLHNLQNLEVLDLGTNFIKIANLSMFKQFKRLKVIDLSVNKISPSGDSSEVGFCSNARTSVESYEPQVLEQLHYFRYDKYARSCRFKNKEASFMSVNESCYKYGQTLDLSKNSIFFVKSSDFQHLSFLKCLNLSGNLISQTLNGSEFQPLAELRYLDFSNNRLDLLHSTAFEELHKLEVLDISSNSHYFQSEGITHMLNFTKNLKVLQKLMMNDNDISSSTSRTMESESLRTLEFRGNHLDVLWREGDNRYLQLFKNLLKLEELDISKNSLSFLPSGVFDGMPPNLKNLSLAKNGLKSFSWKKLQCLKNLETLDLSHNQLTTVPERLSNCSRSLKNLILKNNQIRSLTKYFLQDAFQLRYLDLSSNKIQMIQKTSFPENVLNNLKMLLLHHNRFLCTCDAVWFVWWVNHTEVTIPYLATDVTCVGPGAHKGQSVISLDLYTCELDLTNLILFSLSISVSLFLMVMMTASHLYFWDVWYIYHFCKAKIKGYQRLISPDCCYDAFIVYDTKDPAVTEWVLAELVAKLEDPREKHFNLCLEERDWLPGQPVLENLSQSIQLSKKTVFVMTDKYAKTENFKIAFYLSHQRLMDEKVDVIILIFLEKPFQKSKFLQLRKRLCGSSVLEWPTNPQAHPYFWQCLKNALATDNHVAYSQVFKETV
Experimental: as §1

SMILES	IC50 [1] [µM]	IC50 [2] [nM]	IC50 [3] [µM]
COc1ccc(-c2nc3c(C)nc(-c4ccc(N5CCC6(CC5)CN(CC(C)(C)O)C6)cc4)cc3n2C)cc1OC [Example 92, 1-(7-(4-(2-(3,4-dimethoxyphenyl)-1,4-dimethyl-1H-imidazo[4,5-c]pyridin-6-yl)phenyl)-2,7-diazaspiro[3.5]nonan-2-yl)-2-methylpropan-2-ol]	> 50	1000	1.5
Cc1nc(-c2ccc(N3CC4(CN(CC(C)C)C4)C3)cc2)cc2c1nc(-c1ccc(S(C)(=O)=O)cc1)n2C [Example 57, 6-(4-(6-isobutyl-2,6-diazaspiro[3.3]heptan-2-yl)phenyl)-1,4-dimethyl-2-(4-(methylsulfonyl)phenyl)-1H-imidazo[4,5-c]pyridine]	4.8	150	4
CC(C)N1C[C@H]2CN(c3ccc(-c4cc5c(cn4)nc(-c4ccc(S(C)(=O)=O)cc4)n5C4CC4)cc3)C[C@H]2C1 [Example 87, 1-cyclopropyl-6-(4-((3aR,6aS)-5-isopropylhexahydropyrrolo[3,4-c]pyrrol-2(1H)-yl)phenyl)-2-(4-(methylsulfonyl)phenyl)-1H-imidazo[4,5-c]pyridine]	2	290	1.5
Cc1nc(-c2ccc(N3CC4(CCN(CC(C)(C)O)CC4)C3)cc2)cc2c1nc(-c1ccc(S(C)(=O)=O)cc1)n2C [Example 100, 1-(2-(4-(1,4-dimethyl-2-(4-(methylsulfonyl)phenyl)-1H-imidazo[4,5-c]pyridin-6-yl)phenyl)-2,7-diazaspiro[3.5]nonan-7-yl)-2-methylpropan-2-ol]	2.2	650	3.3
Cc1nc(-c2ccc(C3CCNCC3)cc2)cc2c1nc(-c1ccc(S(C)(=O)=O)cc1)n2C [Example 27, 1,4-dimethyl-2-(4-(methylsulfonyl)phenyl)-6-(4-(piperidin-4-yl)phenyl)-1H-imidazo[4,5-c]pyridine]	46	1100	20
CC(C)N1CCC(N2CCC(c3cc4c(cn3)nc(-c3ccc(S(C)(=O)=O)cc3)n4C)CC2)CC1 [Example 30, 6-(1′-isopropyl-[1,4′-bipiperidin]-4-yl)-1-methyl-2-(4-(methylsulfonyl)phenyl)-1H-imidazo[4,5-c]pyridine]	> 25	1400	> 25
CC(C)N1CCC(N2CC=C(c3cc4c(nc(-c5ccc(S(C)(=O)=O)cc5)n4C)c(C(F)(F)F)n3)CC2)CC1 [Example 35, 6-(1-(1-isopropylpiperidin-4-yl)-1,2,3,6-tetrahydropyridin-4-yl)-1-methyl-2-(4-(methylsulfonyl)phenyl)-4-(trifluoromethyl)-1H-imidazo[4,5-c]pyridine]	> 50	160	3.3
COc1ccc(-c2nc3c(C)nc(-c4ccc(N5CC6(CN(CC(C)C)C6)C5)cc4)cc3n2C)cc1OC [Example 71, 2-(3,4-dimethoxyphenyl)-6-(4-(6-isobutyl-2,6-diazaspiro[3.3]heptan-2-yl)phenyl)-1,4-dimethyl-1H-imidazo[4,5-c]pyridine]	17	130	1
Cc1nc(-c2ccc(C(=O)NC3CN(Cc4ccccc4)C3)cc2)cc2c1nc(-c1ccc(S(C)(=O)=O)cc1)n2C [Example 49, N-(1-benzylazetidin-3-yl)-4-(1,4-dimethyl-2-(4-(methylsulfonyl)phenyl)-1H-imidazo[4,5-c]pyridin-6-yl)benzamide]		810	5.5
Cc1ccccc1C(=O)N1CCC(NCc2ccc(-c3cc4c(nc(-c5ccc(S(C)(=O)=O)cc5)n4C)c(C)n3)cc2)CC1 [Example 51, (4-((4-(1,4-dimethyl-2-(4-(methylsulfonyl)phenyl)-1H-imidazo[4,5-c]pyridin-6-yl)benzyl)amino)piperidin-1-yl)(o-tolyl)methanone]		2300	6.6
Cn1c(-c2ccc(S(C)(=O)=O)cc2)nc2cnc(C3CCN(C4CCN(C5CC5)CC4)CC3)cc21 [Example 32, 6-(1′-cyclopropyl-[1,4′-bipiperidin]-4-yl)-1-methyl-2-(4-(methylsulfonyl)phenyl)-1H-imidazo[4,5-c]pyridine]		130	
